Experiments:
Details in all cases: incubation time: 72 h
BT-474 [1] = assay: normalised response (% of control), CellTiter-Glo; higher = more viable cells (100 = DMSO, 0 = benzethonium chloride kill control)
Summary of the method: (§1)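 Values are normalised signals, each belonging to one concentration of the series. Breast cancer cells (20 µl suspension) were seeded into 384-well plates with compound at 5 concentrations in 10-fold steps over a compound-specific 10,000-fold range and incubated 72 h. Readouts were CellTox Green fluorescence (485/520 nm), then CellTiter-Glo luminescence after 10 min at room temperature, with each plate set to 0.1 % DMSO as 100 and a positive kill control as 0.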

BT-549 [2] = assay: as above
Summary of the method: as §1

CAL-120 [3] = assay: as above
Summary of the method: as §1

CAL-148 [4] = assay: as above
Summary of the method: as §1

CAL-51 [5] = assay: as above
Summary of the method: as §1

CAL-85-1 [6] = assay: as above
Summary of the method: as §1

DU-4475 [7] = assay: as above
Summary of the method: as §1

HCC1143 [8] = assay: as above
Summary of the method: as §1

HCC1599 [9] = assay: as above
Summary of the method: as §1

HCC1937 [10] = assay: as above
Summary of the method: as §1

HDQ-P1 [11] = assay: as above
Summary of the method: as §1

Hs578T [12] = assay: as above
Summary of the method: as §1

MCF-10A = assay: as above
Summary of the method: as §1

MDA-MB-231 [13] = assay: as above
Summary of the method: as §1

MDA-MB-436 [14] = assay: as above
Summary of the method: as §1

MDA-MB-453 [15] = assay: as above
Summary of the method: as §1

MDA-MB-468 [16] = assay: as above
Summary of the method: as §1

MFM-223 [17] = assay: as above
Summary of the method: as §1

SK-BR-3 [18] = assay: as above
Summary of the method: as §1

BT-474 [19] = assay: normalised viability (% of control), CellTiter-Blue; higher = more viable cells (100 = DMSO, 0 = benzethonium chloride kill control)
Summary of the method: (§2)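 The reported quantity is normalised viability at a single listed concentration of the series. Compound in 5 µl medium was pre-dispensed into 384-well plates and 20 µl of breast cancer cell suspension was added for 72 h. A 2 h, 37 °C CellTiter-Blue step (2.5 µl) preceded fluorescence reading at 560/590 nm, and plates were normalised to vehicle (100) and a positive kill control (0).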

BT-549 [20] = assay: as above
Summary of the method: as §2

CAL-120 [21] = assay: as above
Summary of the method: as §2

CAL-148 [22] = assay: as above
Summary of the method: as §2

CAL-51 [23] = assay: as above
Summary of the method: as §2

CAL-85-1 [24] = assay: as above
Summary of the method: as §2

DU-4475 [25] = assay: as above
Summary of the method: as §2

HCC1143 [26] = assay: as above
Summary of the method: as §2

HCC1599 [27] = assay: as above
Summary of the method: as §2

HCC1937 [28] = assay: as above
Summary of the method: as §2

HDQ-P1 [29] = assay: as above
Summary of the method: as §2

Hs578T [30] = assay: as above
Summary of the method: as §2

MDA-MB-231 [31] = assay: as above
Summary of the method: as §2

MDA-MB-436 [32] = assay: as above
Summary of the method: as §2

MDA-MB-453 [33] = assay: as above
Summary of the method: as §2

MDA-MB-468 [34] = assay: as above
Summary of the method: as §2

MFM-223 [35] = assay: as above
Summary of the method: as §2

SK-BR-3 [36] = assay: as above
Summary of the method: as §2

**Q.** How did the normalised response (BT-474 [1]) turn out when C=CCn1c(=O)c2cnc(Nc3ccc(N4CCN(C)CC4)cc3)nc2n1-c1cccc(C(C)(C)O)n1 [MK1775] (1 nM) was run?
**A.** 94.4%

**Q.** And the normalised response (BT-549 [2])?
**A.** 101%

**Q.** And the normalised response (CAL-120 [3])?
**A.** 92.9%

**Q.** And the normalised response (CAL-148 [4])?
**A.** 87.4%

**Q.** And the normalised response (CAL-51 [5])?
**A.** 114%

**Q.** And the normalised response (CAL-85-1 [6])?
**A.** 101%

**Q.** And the normalised response (DU-4475 [7])?
**A.** 96.6%

**Q.** And the normalised response (HCC1143 [8])?
**A.** 91.4%

**Q.** What about the normalised response (HCC1599 [9]) of the same compound?
**A.** 105%

**Q.** And the normalised response (HCC1937 [10])?
**A.** 97.9%

**Q.** And the normalised response (HDQ-P1 [11])?
**A.** 87.7%

**Q.** What about the normalised response (Hs578T [12]) of the same compound?
**A.** 95.8%

**Q.** And the normalised response (MCF-10A)?
**A.** 80.6%

**Q.** And the normalised response (MDA-MB-231 [13])?
**A.** 90.5%

**Q.** And the normalised response (MDA-MB-436 [14])?
**A.** 85.8%

**Q.** And the normalised response (MDA-MB-453 [15])?
**A.** 90.2%

**Q.** And the normalised response (MDA-MB-468 [16])?
**A.** 95.2%

**Q.** And the normalised response (MFM-223 [17])?
**A.** 85.6%

**Q.** What about the normalised response (SK-BR-3 [18]) of the same compound?
**A.** 78.3%

**Q.** And the normalised viability (BT-474 [19])?
**A.** 90.5%

**Q.** What about the normalised viability (BT-549 [20]) of the same compound?
**A.** 107%

**Q.** What about the normalised viability (CAL-120 [21]) of the same compound?
**A.** 83.5%

**Q.** And the normalised viability (CAL-148 [22])?
**A.** 99.8%

**Q.** And the normalised viability (CAL-51 [23])?
**A.** 89%

**Q.** And the normalised viability (CAL-85-1 [24])?
**A.** 78.4%

**Q.** What about the normalised viability (DU-4475 [25]) of the same compound?
**A.** 86.6%

**Q.** And the normalised viability (HCC1143 [26])?
**A.** 104%

**Q.** And the normalised viability (HCC1599 [27])?
**A.** 103%

**Q.** And the normalised viability (HCC1937 [28])?
**A.** 106%

**Q.** What about the normalised viability (HDQ-P1 [29]) of the same compound?
**A.** 84.2%

**Q.** And the normalised viability (Hs578T [30])?
**A.** 106%

**Q.** And the normalised viability (MDA-MB-231 [31])?
**A.** 95.2%

**Q.** And the normalised viability (MDA-MB-436 [32])?
**A.** 97.9%

**Q.** And the normalised viability (MDA-MB-453 [33])?
**A.** 104%

**Q.** And the normalised viability (MDA-MB-468 [34])?
**A.** 105%

**Q.** What about the normalised viability (MFM-223 [35]) of the same compound?
**A.** 94.8%

**Q.** And the normalised viability (SK-BR-3 [36])?
**A.** 92.9%

**Q.** Which results are given for CO[C@@H]1[C@H](N(C)C(=O)c2ccccc2)C[C@H]2O[C@]1(C)n1c3ccccc3c3c4c(c5c6ccccc6n2c5c31)C(=O)NC4 [Midostaurin] (1 nM)?
**A.** normalised response (BT-474 [1]): 97.3%; normalised response (BT-549 [2]): 101%; normalised response (CAL-120 [3]): 97.2%; normalised response (CAL-148 [4]): 103%; normalised response (CAL-51 [5]): 104%; normalised response (CAL-85-1 [6]): 104%; normalised response (DU-4475 [7]): 94%; normalised response (HCC1143 [8]): 101%; normalised response (HCC1599 [9]): 109%; normalised response (HCC1937 [10]): 93.5%; normalised response (HDQ-P1 [11]): 91.2%; normalised response (Hs578T [12]): 96.8%; normalised response (MCF-10A): 93.4%; normalised response (MDA-MB-231 [13]): 107%; normalised response (MDA-MB-436 [14]): 83%; normalised response (MDA-MB-453 [15]): 92.5%; normalised response (MDA-MB-468 [16]): 106%; normalised response (MFM-223 [17]): 100%; normalised response (SK-BR-3 [18]): 102%; normalised viability (BT-474 [19]): 99.7%; normalised viability (BT-549 [20]): 104%; normalised viability (CAL-120 [21]): 113%; normalised viability (CAL-148 [22]): 119%; normalised viability (CAL-51 [23]): 96.4%; normalised viability (CAL-85-1 [24]): 112%; normalised viability (DU-4475 [25]): 100%; normalised viability (HCC1143 [26]): 129%; normalised viability (HCC1599 [27]): 94.2%; normalised viability (HCC1937 [28]): 132%; normalised viability (HDQ-P1 [29]): 108%; normalised viability (Hs578T [30]): 104%; normalised viability (MDA-MB-231 [31]): 95.3%; normalised viability (MDA-MB-436 [32]): 98.2%; normalised viability (MDA-MB-453 [33]): 94.3%; normalised viability (MDA-MB-468 [34]): 99.5%; normalised viability (MFM-223 [35]): 108%; normalised viability (SK-BR-3 [36]): 109%

**Q.** Which results are given for CO[C@@]12[C@H](COC(N)=O)C3=C(C(=O)C(C)=C(N)C3=O)N1C[C@@H]1N[C@@H]12 [Mitomycin C] (1 nM)?
**A.** normalised response (BT-474 [1]): 92.3%; normalised response (BT-549 [2]): 105%; normalised response (CAL-120 [3]): 94.3%; normalised response (CAL-148 [4]): 95.3%; normalised response (CAL-51 [5]): 82.6%; normalised response (CAL-85-1 [6]): 99.7%; normalised response (DU-4475 [7]): 95.1%; normalised response (HCC1143 [8]): 96%; normalised response (HCC1599 [9]): 72.6%; normalised response (HCC1937 [10]): 94.6%; normalised response (HDQ-P1 [11]): 98.8%; normalised response (Hs578T [12]): 101%; normalised response (MCF-10A): 93.2%; normalised response (MDA-MB-231 [13]): 95.1%; normalised response (MDA-MB-436 [14]): 82.4%; normalised response (MDA-MB-453 [15]): 97.5%; normalised response (MDA-MB-468 [16]): 90.4%; normalised response (MFM-223 [17]): 93.9%; normalised response (SK-BR-3 [18]): 100%; normalised viability (BT-474 [19]): 86.7%; normalised viability (BT-549 [20]): 87.3%; normalised viability (CAL-120 [21]): 93.9%; normalised viability (CAL-148 [22]): 109%; normalised viability (CAL-51 [23]): 110%; normalised viability (CAL-85-1 [24]): 96.3%; normalised viability (DU-4475 [25]): 104%; normalised viability (HCC1143 [26]): 98.8%; normalised viability (HCC1599 [27]): 94.8%; normalised viability (HCC1937 [28]): 106%; normalised viability (HDQ-P1 [29]): 118%; normalised viability (Hs578T [30]): 134%; normalised viability (MDA-MB-231 [31]): 87.4%; normalised viability (MDA-MB-436 [32]): 96.9%; normalised viability (MDA-MB-453 [33]): 102%; normalised viability (MDA-MB-468 [34]): 94.3%; normalised viability (MFM-223 [35]): 91.1%; normalised viability (SK-BR-3 [36]): 90.3%

Reference: the supplement of paper PMC4862054
